Test results taken from ChEMBL document CHEMBL3639113, “TRPA1 antagonists” (2015).

Biological target: Transient receptor potential cation channel subfamily A member 1 (Homo sapiens, UniProt O75762)
Test: FLIPR Calcium Assay: Ca2+ influx was measured using a FLIPR calcium assay kit (R8033; Molecular Devices, Sunnyvale, Calif.). The Ca2+ indicator dye was dissolved in Hanks' balanced salt solution supplemented with 20 mM HEPES buffer (HBSS/HEPES) according to the manufacturer instructions. Prior to start of the assay, the medium was removed by aspiration, and cells were loaded with 100 μL Ca2+ dye for 2 to 3 hours at room temperature. […] (4×) solutions of the test compounds were prepared in HBSS/HEPES, and 50 μL were added to the cells at a delivery rate of 10 μL/sec. Changes in fluorescence were measured over time in a fluorometric imaging plate reader (FLIPR, Molecular Devices). Two additions were made over the course of an experimental run. For agonist experiments, assay buffer was added at the 10 s time point, followed by addition of agonist at the 3 minute 10 sec time point.

Sequence of Transient receptor potential cation channel subfamily A member 1 (O75762 whole entry): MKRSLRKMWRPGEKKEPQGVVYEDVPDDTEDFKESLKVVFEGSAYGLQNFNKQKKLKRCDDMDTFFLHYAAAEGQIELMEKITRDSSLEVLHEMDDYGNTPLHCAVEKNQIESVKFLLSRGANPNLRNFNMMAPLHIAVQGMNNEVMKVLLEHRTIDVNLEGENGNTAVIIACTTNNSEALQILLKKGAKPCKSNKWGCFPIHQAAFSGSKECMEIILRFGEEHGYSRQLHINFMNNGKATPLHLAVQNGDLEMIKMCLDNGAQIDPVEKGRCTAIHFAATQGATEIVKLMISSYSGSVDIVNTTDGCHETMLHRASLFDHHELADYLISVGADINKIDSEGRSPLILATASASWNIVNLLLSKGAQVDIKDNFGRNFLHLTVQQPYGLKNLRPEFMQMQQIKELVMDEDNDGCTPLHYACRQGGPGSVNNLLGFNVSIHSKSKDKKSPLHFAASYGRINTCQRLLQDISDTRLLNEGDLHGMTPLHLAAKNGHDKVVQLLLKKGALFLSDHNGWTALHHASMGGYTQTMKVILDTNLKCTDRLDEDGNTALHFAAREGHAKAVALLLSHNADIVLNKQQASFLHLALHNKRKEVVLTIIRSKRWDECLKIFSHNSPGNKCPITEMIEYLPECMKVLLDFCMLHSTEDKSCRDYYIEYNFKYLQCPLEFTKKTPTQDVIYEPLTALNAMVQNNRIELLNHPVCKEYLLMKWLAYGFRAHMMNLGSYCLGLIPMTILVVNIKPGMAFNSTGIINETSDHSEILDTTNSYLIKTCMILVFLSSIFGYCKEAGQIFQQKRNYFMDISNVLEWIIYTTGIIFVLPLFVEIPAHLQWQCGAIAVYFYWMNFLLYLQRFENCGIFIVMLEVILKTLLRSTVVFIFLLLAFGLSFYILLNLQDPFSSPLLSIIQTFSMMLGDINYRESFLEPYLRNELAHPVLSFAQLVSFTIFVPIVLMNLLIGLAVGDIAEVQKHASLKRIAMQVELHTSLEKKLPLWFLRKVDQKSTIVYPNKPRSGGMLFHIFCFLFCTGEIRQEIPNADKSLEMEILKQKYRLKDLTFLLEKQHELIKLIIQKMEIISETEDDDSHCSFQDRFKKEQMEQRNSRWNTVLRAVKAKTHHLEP

| IC50 | SMILES |
| --- | --- |
| 8.3 µM | CCC(=N\OC)/C(C)=C/c1ccc(F)cc1 |
| > 100 µM | CCC(=N\O)/C(C)=C/c1ccc(F)c(C#N)c1 |
